Earlier results, collected in patent US20150099751A1, “IN SITU GEL LOADED WITH PHOSPHODIESTERASE TYPE V INHIBITORS NANOEMULSION” (KING ABDULAZIZ UNIVERSITY, priority 2013, published 2015).

Key:
[1] = tested on: isolated human corpus cavernosum; conditions: at the recommended doses
[2] = administration by mouth (orally)
[3] = tested on: male lower urinary tract syndrome (LUTS); conditions: after 12 weeks of treatment

CCCc1nn(C)c2c(=O)[nH]c(-c3cc(S(=O)(=O)N4CCN(C)CC4)ccc3OCC)nc12 [Sildenafil, 1[4ethoxy3(6.7dihydro1methyl7oxo3propyl1Hpyrazolo [4,3d]pyrimidin5yl)phenylsulfonyl]4methylpiperazine]
direct relaxant effect on the isolated human corpus cavernosum [1]: no direct relaxant effect | bioavailability [2]: approximately 40% | International Prostate Symptom Score (IPSS) and LUTS-specific quality of life (QoL) score [3]: overall improvement
